According to patent publication US20250186536A1, “SUSTAINED RELEASE PEPTIDE FORMULATIONS” (RHYTHM PHARMACEUTICALS, INC., priority 2017, published 2025):

Tests used:
[1] = Part A single-dose pharmacokinetics of long-acting setmelanotide formulation in healthy obese subjects; format: in vivo, human; conditions: for AUC(0-inf) / Cmax / Tmax / half-life: human, plasma; for Tmax: read-out: median tmax
Procedure: (§1) In order to assess the pharmacokinetics of setmelanotide, a two part study was carried out comprising single dose administration (Part A) and multiple dose administration (Part B) with healthy obese subjects.
(§2) Part A was a rising-dose, placebo-controlled study including up to 3 sequential panels. For each panel, 10 normal obese subjects in good health between the ages of 21 and 54 were assigned to randomly-ordered treatments which included 8 active and 2 placebo treatments. Data acquired from Part A were used to determine the dose and dosing regimen for Part B. In Part B, 12 normal healthy obese patients were randomly assigned to receive either 6 active and 6 placebo treatments. Subjects received once weekly subcutaneous injection of the assigned formulation for 4 weeks. Patients in Part B were housed in the clinical unit for the 28 days.
(§3) Setmelanotide was formulated in a sterile liquid polar lipid phase consisting of soy phosphatidylcholine, glycerol dioleate, ethanol and citrate buffer. Without being bound by theory, the setmelanotide formulation behaves in a long-acting fashion, wherein when injected subcutaneously, aqueous body fluid is absorbed by the lipid phase to form a gel like depot consisting of liquid crystals formed in situ.
10 normal obese subjects enrolled for each dose level of Part A; 8 received active drug, and 2 received placebo. There were 3 dose levels used in the single dose phase which were administered according to the sequential, rising dose design. The single setmelanotide doses administered were in sequence: 2.5 mg, 10 mg, and 30 mg. Setmelanotide concentrations were analyzed and safety was assessed before the next higher dose level was started. The drug was administered subcutaneously on the morning of dosing. Blood samples were collected prior to dosing and at 0.5, 1, 2, 3, 4, 6, 8, 10, 12, 16, 24, 30, and 36 hours post-dose (in the clinic), then at approximately 48, 60, 72, 96, 120, 168, 240, and 336 hours post-dose as outpatients. Based on the PK analysis of the first dose, additional blood samples were included for the 30 mg dose at 21 ([…]) and 28 ([…]) days post-dose. The actual times of blood collection were recorded.

[2] = Part B multiple-dose pharmacokinetics (once weekly for 4 weeks) in obese subjects; format: in vivo, human
Procedure: as §1, §2, §3
Twelve (12) obese subjects were enrolled in Part B; 6 received active drug, and 6 were given placebo. Based on results from Part A, setmelanotide 10 mg once weekly was selected as the dose for Part B. Subjects were housed in the clinical facility for the entire 4 weeks of study. Qualified subjects entered the clinical facility the evening before the first dose. Subjects assigned to active treatment received setmelanotide 10 mg subcutaneously in the morning on Day 1. Placebo subjects received the same volume of the placebo injection as the active treatment. Subjects were fasting from the evening before to 4 hours after dosing. Standard lowfat meals were served. Subjects were also dosed on Days 8, 15, and 22 with the treatment given on Day 1.
Blood samples were collected at a time before dosing and at 0.5, 1, 2, 3, 4, 6, 8, 10, 12, 16, 24, 30, 36, 48, 60, 72, 96, 120, 168, 240, and 336 hours during Week 1 and during Week 4. The actual sampling times were recorded. In addition, blood samples were collected at a time just before dosing for trough setmelanotide concentrations for evaluating the attainment of steady state.

[3] = Stability analysis of setmelanotide formulations (degradation by HPLC); format: physicochemical
Procedure: Components of exemplary setmelanotide formulations were varied in order to assess their impact on the stability of setmelanotide over time. In a first study, setmelanotide formulations were prepared as described in Example 2 with 30 mg/mL setmelanotide using different forms of GDO: 1) GDO of commercial purity; 2) GDO of commercial purity, which has been further purified to remove fatty acid compounds; and 3) synthetic GDO. The formulations were stored in 1 mL glass syringes equipped with staked stainless steel […] and rubber plungers at 40° C. for up to three months.
The effect of EDTA concentration on setmelanotide degradation was also investigated in a second study. Syringes containing setmelanotide formulations with higher EDTA along with GDO of varying sources were prepared, and setmelanotide degradation was quantified by HPLC over time. The results of this study are depicted in FIG. 6, and indicate that higher concentrations of EDTA have a small effect on setmelanotide stability in the presence of either GDO of commercial purity or synthetic GDO.
In a third study, the effect of setmelanotide and EDTA concentrations were explored in the presence of synthetic GDO.

[4] = 10 mg SC once weekly for 4 weeks

CC(=O)N[C@@H](CCCNC(=N)N)C(=O)N[C@H]1CSSC[C@@H](C(N)=O)NC(=O)[C@H](Cc2c[nH]c3ccccc23)NC(=O)[C@H](CCCNC(=N)N)NC(=O)[C@@H](Cc2ccccc2)NC(=O)[C@H](Cc2c[nH]cn2)NC(=O)[C@@H](C)NC1=O [setmelanotide]
dose proportionality of AUC∞ ([1]; 2.5 mg dose): less than proportional | dose proportionality of AUC ([1]; 10 mg and 30 mg doses): proportional | dose proportionality of Cmax ([1]; 2.5 to 30 mg dose range): roughly proportional | AUC(0-inf) ([1]; single SC dose 2.5 mg): 92.9 ng·h/mL | Cmax ([1]; single SC dose 2.5 mg): 2.92 ng/mL | Tmax ([1]; single SC dose 2.5 mg): 3.5 h | AUC(0-inf) ([1]; single SC dose 10 mg): 1140 ng·h/mL | Cmax ([1]; single SC dose 10 mg): 11.5 ng/mL | half-life ([1]; single SC dose 10 mg): 123 h | Tmax ([1]; single SC dose 10 mg): 4 h | AUC(0-inf) ([1]; single SC dose 30 mg): 3470 ng·h/mL | Cmax ([1]; single SC dose 30 mg): 34.1 ng/mL | half-life ([1]; single SC dose 30 mg): 159 h | Tmax ([1]; single SC dose 30 mg): 6 h | time by which all values were below quantifiable ([1]; single SC dose 2.5 mg): ≤ 96 h | time past which profile was defined ([1]; single SC dose 10 mg): > 168 h | time past which profile was defined ([1]; single SC dose 30 mg): > 168 h | earliest plasma sample time in which setmelanotide appeared ([1]; single SC dose, generally): 0.5 h | time measurable in plasma after dosing ([1]; single SC dose, generally): ≥ 2 weeks | time to maximum concentrations after dosing ([1]; single SC dose, generally over the three dose levels): about 4 hours | early burst effect or dose dumping ([1]; single dose administration): no early burst effect or dose dumping | lag-time of absorption ([1]; single dose administration): little to no lag-time | accumulation index [2, 4]: 1.46 | lag in absorption [2, 4]: no lag in absorption | attainment of steady state (trough concentrations, visual inspection) ([2]; 10 mg SC once weekly, 4 weekly doses): attained during Week 4 | Cmax ([2]; human, plasma, 10 mg SC once weekly for 4 weeks): 11.4 ng/mL | level at 168 h ([2]; human, plasma, 10 mg SC once weekly for 4 weeks, end of 1-week dosing interval, read-out: mean concentration at 168 hours): 2.92 ng/mL | Tmax ([2]; human, plasma, 10 mg SC once weekly for 4 weeks, read-out: median tmax): 4 h | setmelanotide degradation ([3]; 15 mg/mL formulations compared with 30 mg/mL formulations, synthetic GDO): higher levels of degradation | setmelanotide degradation ([3]; 30 mg/mL formulation prepared with synthetic GDO vs GDO of commercial purity or further purified, 40° C. up to three months, HPLC): lower amount | effect of higher EDTA concentration on setmelanotide stability ([3]; GDO of commercial purity or synthetic GDO, HPLC over time): small effect | effect of increasing EDTA concentration on degradation ([3]; as setmelanotide concentration decreases, synthetic GDO): greater effect
